In brackets after ≈: the same amount, converted by molar mass.

Series [1] can be described thus: Equilibrium solubility in fed state simulated intestinal fluid (FeSSIF). Format: physicochemical. Conditions: thermodynamic from solid, pH 5.0, 37° C., read-out: equilibrium solubility of crystalline DHM in FeSSIF.
The nature of series [2]: Equilibrium solubility in fasted state simulated intestinal fluid (FaSSIF). Format: physicochemical. Conditions: thermodynamic from solid, pH 6.5, 37° C., read-out: equilibrium solubility of crystalline DHM in FaSSIF.
For series [3] the following is noted: reference [31]; cited from earlier work.

Take `O=C1c2c(O)cc(O)cc2O[C@H](c2cc(O)c(O)c(O)c2)[C@H]1O` [DHM, dihydromyricetin]: the solubility thermodynamic was about 140 µg/mL (≈ 437 µM) in series [1] and about 50 µg/mL (≈ 156 µM) in series [2]. Moreover, in series [3], the oral bioavailability entry is recorded as “less than 5%”.

The values are drawn from patent US12343324B2, “Dihydromyricetin hot melt extrusion formulations and methods for forming them” (The Trustees of Princeton University, priority 2018, dated 2025).
